IC50 data for five compounds are collected here from patent EP1515965B1, “PHENYLAMINOPYRIMIDINES AND THEIR USE AS RHO-KINASE INHIBITORS” (Bayer Schering Pharma Aktiengesellschaft, priority 2002, dated 2003).

Like-named read-outs stand apart in the source and are kept apart here.

The target in one test is T1, Rho-Kinase II (ROKα) (Rattus norvegicus, UniProt Q62868).
T1 construct: purchased Upstate Biotechnology
The test is described as follows: Inhibition of recombinant Rho-kinase II (ROKα), 33P-phosphate incorporation into S6 substrate peptide. The class given is biochemical. The following applies: recombinant Rho-Kinase II (Upstate Biotechnology), S6 Phosphate-Acceptor-Peptide, 33P-ATP, 20 min at 37°C. The source says: (§1) In einem in vitro-Assay mit rekombinanter Rho-Kinase-II wird die Hemmung des Enzyms untersucht. Die gefäßrelaxierende Wirkung wird an Phenylephrin-induzierten Kontraktionen isolierter Ringe der Kaninchen-Arteria-Saphena bestimmt. Die Eignung der erfindungsgemäßen Verbindungen zur Behandlung von kardiovaskulären Erkrankungen kann durch Untersuchung der blutdrucksenkenden Wirkung an narkotisierten Ratten gezeigt werden.
Die Aktivität der Rho-Kinase wird durch den Einbau von ^33P-Phosphat in ein Substratpeptid bestimmt. Dazu wird kommerziell erhältliche Rho-Kinase II (Upstate Biotechnology) in Gegenwart des S6 Phosphate-Acceptor-Peptides mit den Testsubstanzen oder einer Lösungsmittelkontrolle 10 min bei 37°C vorinkubiert. Anschliessend wird die Kinase-Reaktion durch Zugabe von ^33P-markiertem ATP gestartet. Nach 20 min bei 37°C wird die Reaktion durch Zugabe von H3PO4 gestoppt. Aliquots werden auf Filter pipettiert, die Filter gewaschen und anschließend mit Scintillator beschichtet. Die Radioaktivität der am Filter gebundenen ^33P-markierten Peptide wird in einem Micro-Beta-Counter gemessen. Der IC50-Wert entspricht der Konzentration einer Testsubstanz bei welcher der Rho-Kinase katalysierte Einbau von ^33P in das Peptid im Vergleich zu einer Lösungsmittelkontrolle um 50 % gehemmt ist. Die experimentellen Daten sind in der folgenden Tabelle zusammengestellt.

Test [1] has as its system Kaninchen-Arteria-Saphena. The test is described as follows: Vasorelaxant effect in vitro: phenylephrine-induced contractions of isolated rabbit saphenous artery rings.
Text: as §1
3 mm breite Ringe der isolierten Kaninchen-Arteria-Saphena werden einzeln in 5 ml-Organbäder mit 37°C warmer, carbogenbegaster Krebs-Henseleit-Lösung gebracht. Der Gefäßtonus wird isometrisch erfasst und registriert. Kontraktionen werden durch Zugabe von 3x10^-8 g/ml Phenylephrin induziert und nach 4 min wieder ausgewaschen. Nach mehreren Kontrollzyklen wird die zu untersuchende Substanz mit jedem weiteren Durchgang in steigender Dosierung vorinkubiert und die darauffolgende Kontraktion mit der Höhe der letzten Kontrollkontraktion verglichen. Es wird die Konzentration errechnet, die erforderlich ist, um die Höhe des Kontrollwertes um 50 % zu reduzieren (IC50). Die experimentellen Daten sind in der folgenden Tabelle zusammengestellt.

The mark [2] stands for this setting: isolated rings of rabbit Arteria saphena, contraction induced by 3x10^-8 g/ml Phenylephrin, concentration reducing control contraction by 50 %, read-out: IC50.

T1 sequence (Q62868 whole entry): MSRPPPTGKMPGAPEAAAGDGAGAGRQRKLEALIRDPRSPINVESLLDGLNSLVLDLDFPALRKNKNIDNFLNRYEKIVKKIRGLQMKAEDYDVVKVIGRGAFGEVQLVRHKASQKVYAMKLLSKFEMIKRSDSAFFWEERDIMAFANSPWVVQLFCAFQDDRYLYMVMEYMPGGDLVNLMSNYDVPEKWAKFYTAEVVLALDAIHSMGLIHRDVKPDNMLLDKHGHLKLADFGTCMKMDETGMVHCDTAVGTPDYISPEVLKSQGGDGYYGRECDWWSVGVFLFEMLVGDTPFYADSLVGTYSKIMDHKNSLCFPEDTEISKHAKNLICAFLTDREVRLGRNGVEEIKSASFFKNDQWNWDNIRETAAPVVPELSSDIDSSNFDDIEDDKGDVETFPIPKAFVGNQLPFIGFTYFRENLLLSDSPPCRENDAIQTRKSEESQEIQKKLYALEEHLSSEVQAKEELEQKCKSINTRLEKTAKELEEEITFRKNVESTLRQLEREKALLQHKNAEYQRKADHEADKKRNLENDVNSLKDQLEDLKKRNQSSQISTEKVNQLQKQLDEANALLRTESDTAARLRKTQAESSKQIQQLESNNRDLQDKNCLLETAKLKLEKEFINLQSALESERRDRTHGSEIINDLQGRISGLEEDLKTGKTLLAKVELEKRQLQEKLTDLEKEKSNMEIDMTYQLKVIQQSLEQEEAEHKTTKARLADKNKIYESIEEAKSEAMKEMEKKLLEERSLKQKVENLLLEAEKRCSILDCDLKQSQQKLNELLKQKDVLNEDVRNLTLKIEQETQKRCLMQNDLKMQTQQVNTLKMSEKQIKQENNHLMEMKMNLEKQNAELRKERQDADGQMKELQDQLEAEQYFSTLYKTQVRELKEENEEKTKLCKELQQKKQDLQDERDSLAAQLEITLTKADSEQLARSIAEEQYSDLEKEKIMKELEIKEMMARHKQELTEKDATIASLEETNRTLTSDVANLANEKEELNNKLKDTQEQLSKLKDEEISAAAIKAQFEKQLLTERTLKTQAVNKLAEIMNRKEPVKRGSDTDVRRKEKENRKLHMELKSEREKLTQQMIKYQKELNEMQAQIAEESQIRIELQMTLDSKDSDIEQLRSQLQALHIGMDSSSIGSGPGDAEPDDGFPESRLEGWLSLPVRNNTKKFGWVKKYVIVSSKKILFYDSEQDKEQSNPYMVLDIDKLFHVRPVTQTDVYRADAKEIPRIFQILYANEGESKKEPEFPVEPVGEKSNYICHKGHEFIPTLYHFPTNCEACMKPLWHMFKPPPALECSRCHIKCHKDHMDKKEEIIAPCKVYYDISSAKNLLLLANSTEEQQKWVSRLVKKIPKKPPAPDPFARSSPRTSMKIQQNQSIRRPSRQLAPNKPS

Consider `Nc1nc(Nc2ccc(Sc3ccncc3)c(F)c2)cc(Oc2cccc(Cl)c2)n1` [Beispiel 56], for which the IC50 (usually the concentration that gives 50% inhibition) on Rho-Kinase II (ROKα) was found to be 70 nM.

For `Nc1nc(Nc2cc(F)c(Sc3ccncc3)c(Cl)c2)cc(N2C[C@H]3CCCN[C@H]3C2)n1` [Beispiel 22], the IC50 worked out at 900 nM in test [1] (setting [2]) and 6 nM at Rho-Kinase II (ROKα).

Turning to `Nc1nc(Nc2ccc(Sc3ccncc3)c(F)c2)cc(-c2ccc3ncccc3c2)n1` [Beispiel 1, N-[2-Amino-6-(6-chinolinyl)-4-pyrimidinyl]-N-[3-fluor-4-(4-pyridinylsulfanyl)-phenyl]amin], the IC50 turned out to be 760 nM in test [1] (setting [2]) and 7 nM at Rho-Kinase II (ROKα).

Regarding `Nc1nc(Nc2ccc(Sc3ccncc3)c(F)c2)cc(N2C[C@H]3CCCN[C@H]3C2)n1` [Beispiel 20], the IC50 amounted to 1700 nM in test [1] and 11 nM on Rho-Kinase II (ROKα).

Consider `Nc1nc(Nc2cc(F)c(Sc3ccncc3)c(F)c2)cc(N2C[C@H]3CCCN[C@H]3C2)n1` [Beispiel 59], for which the IC50 in test [1] (setting [2]) worked out at 360 nM; on Rho-Kinase II (ROKα) it was 5 nM.
